Source: PMC2795317 (Journal of medicinal chemistry, 2009)

System: MDA-MB-231 breast cancer cells
Experiment: Western blot analysis of caspase-8/-3 processing and PARP cleavage
Format: cell-based
Conditions: 24 hours; for Concentration inducing processing of caspase-3 and -8 and cleavage of PARP: concentrations as low as

CN[C@@H](C)C(=O)N[C@H]1CCCC[C@H]2CC[C@@H](C(=O)NC(c3ccccc3)c3ccccc3)N2C1=O [Compound 7]
Processing of caspase-8 and -3 and cleavage of PARP: effectively induce processing of caspase-8 and -3 and cleavage of PARP in a dose-dependent manner

CN[C@@H](C)C(=O)N[C@H]1CCCC[C@H]2CC[C@@H](C(=O)N[C@@H]3CCCc4ccccc43)N2C1=O [Compound 8]
Processing of caspase-8 and -3 and cleavage of PARP: effectively induce processing of caspase-8 and -3 and cleavage of PARP in a dose-dependent manner
Concentration inducing processing of caspase-3 and -8 and cleavage of PARP: ≤ 10 nM

CN[C@@H](C)C(=O)N[C@H]1CCCC[C@H]2[C@@H](Cc3ccccc3)C[C@@H](C(=O)N[C@@H]3CCCc4ccccc43)N2C1=O [Compound 10]
Processing of caspase-8 and -3 and cleavage of PARP: effectively induce processing of caspase-8 and -3 and cleavage of PARP in a dose-dependent manner
Concentration inducing processing of caspase-3 and -8 and cleavage of PARP: ≤ 10 nM
